Our source for the inhibition values is paper PMC7206119, “RIP1 inhibition blocks inflammatory diseases but not tumor growth or metastases” (Cell Death and Differentiation, 2019).

What all share (test): biochemical
Set-up in all cases: Thermo Fisher SelectScreen kinase panel: Z'-LYTE and Adapta activity, LanthaScreen binding
A general note: TR-FRET usually uses a lanthanide donor and a delayed reading to cut background.

In one assay the target is T1, MYLK(smMLCK) (Homo sapiens, UniProt Q15746).
T1 construct: smooth muscle MLCK
A digest of the protocol: (§1)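 GNE684 profiled at 10 µM across 221 kinases with Z'-LYTE and Adapta activity and LanthaScreen binding formats. Also screened at 10 µM against 468 kinases in KINOMEscan scanMAX binding assay.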

The target of a further assay is T2, p70S6K (Homo sapiens, UniProt P23443).
T2 construct: gene RPS6KB1
T2 sequence (P23443 whole entry): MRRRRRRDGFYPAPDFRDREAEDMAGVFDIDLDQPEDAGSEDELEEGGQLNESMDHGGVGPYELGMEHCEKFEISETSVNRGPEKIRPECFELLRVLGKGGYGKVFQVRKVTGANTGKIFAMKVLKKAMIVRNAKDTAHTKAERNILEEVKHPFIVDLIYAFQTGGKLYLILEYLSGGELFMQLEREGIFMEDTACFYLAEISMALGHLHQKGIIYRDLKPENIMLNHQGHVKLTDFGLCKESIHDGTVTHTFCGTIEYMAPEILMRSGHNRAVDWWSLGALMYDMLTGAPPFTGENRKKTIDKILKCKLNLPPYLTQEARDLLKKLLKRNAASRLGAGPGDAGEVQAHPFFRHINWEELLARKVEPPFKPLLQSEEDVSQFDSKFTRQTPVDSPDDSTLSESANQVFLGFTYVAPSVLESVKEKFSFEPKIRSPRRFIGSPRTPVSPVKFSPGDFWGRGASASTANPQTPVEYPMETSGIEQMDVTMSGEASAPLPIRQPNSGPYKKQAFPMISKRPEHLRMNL
A digest of the protocol:
as §1

A further assay deals with BMPR1A (Homo sapiens, UniProt P36894). In short, it runs like this: as §1
Chain of BMPR1A (P36894 whole entry): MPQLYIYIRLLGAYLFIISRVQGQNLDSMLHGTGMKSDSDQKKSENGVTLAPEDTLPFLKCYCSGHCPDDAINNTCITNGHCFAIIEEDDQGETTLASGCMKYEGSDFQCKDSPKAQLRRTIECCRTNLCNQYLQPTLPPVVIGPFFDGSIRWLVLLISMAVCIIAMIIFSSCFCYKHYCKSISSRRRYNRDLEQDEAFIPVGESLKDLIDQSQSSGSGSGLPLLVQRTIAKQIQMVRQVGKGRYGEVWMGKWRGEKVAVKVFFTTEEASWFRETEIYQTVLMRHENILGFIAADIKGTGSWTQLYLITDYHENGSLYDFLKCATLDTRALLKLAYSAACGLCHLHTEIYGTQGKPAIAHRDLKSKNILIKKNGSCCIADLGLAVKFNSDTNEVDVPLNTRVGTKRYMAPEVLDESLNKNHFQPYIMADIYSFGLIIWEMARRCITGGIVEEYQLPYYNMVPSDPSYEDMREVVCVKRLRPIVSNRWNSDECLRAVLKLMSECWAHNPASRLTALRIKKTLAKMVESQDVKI
In a further assay the target is T3, CK1_epsilon1 (Homo sapiens, UniProt P49674).
T3 construct: gene CSNK1E
T3 sequence (P49674 whole entry): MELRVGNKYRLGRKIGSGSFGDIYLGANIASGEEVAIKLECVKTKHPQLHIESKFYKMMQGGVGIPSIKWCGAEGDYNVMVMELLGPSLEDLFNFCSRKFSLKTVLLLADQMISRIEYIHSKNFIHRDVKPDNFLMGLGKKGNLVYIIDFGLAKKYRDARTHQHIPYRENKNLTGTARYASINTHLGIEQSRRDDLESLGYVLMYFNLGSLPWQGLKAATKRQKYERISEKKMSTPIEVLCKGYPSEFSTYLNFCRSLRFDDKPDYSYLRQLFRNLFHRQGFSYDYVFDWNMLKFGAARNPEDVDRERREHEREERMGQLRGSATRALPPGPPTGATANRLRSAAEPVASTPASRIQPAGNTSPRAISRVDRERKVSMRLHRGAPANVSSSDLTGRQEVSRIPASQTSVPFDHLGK
A digest of the protocol: as §1

Another assay concerns the target T4, ERK2 (Homo sapiens, UniProt P28482).
T4 construct: gene MAPK1
In short, it runs like this:
as §1

A further assay concerns the target T5, ARK5 (Homo sapiens, UniProt O60285).
T5 construct: gene NUAK1
A digest of the protocol:
as §1

A further assay deals with T6, Ros (Homo sapiens, UniProt P08922).
T6 construct: gene ROS1
A digest of the protocol: as §1

In the next assay the target is T7, JNK2 (Homo sapiens, UniProt P45984).
T7 construct: gene MAPK9
A digest of the protocol:
as §1

In a further assay the target is MAPKAPK2 (Homo sapiens, UniProt P49137). A digest of the protocol: as §1
The next assay deals with EPHA1 (Homo sapiens, UniProt P21709). In short, it runs like this:
as §1

A further assay addresses T8, MEK1 (Homo sapiens, UniProt Q02750).
T8 construct: gene MAP2K1
In short, it runs like this:
as §1

A further assay deals with T9, Srm (Homo sapiens, UniProt Q9H3Y6).
T9 construct: gene SRMS
A digest of the protocol: as §1

Another assay has as its target T10, PRAK (Homo sapiens, UniProt Q8IW41).
T10 construct: gene MAPKAPK5
A digest of the protocol:
as §1

The target of the next assay is HCK (Homo sapiens, UniProt P08631). A digest of the protocol:
as §1

Another assay deals with T11, JNK1_alpha1 (Homo sapiens, UniProt P45983).
T11 construct: gene MAPK8; isoform alpha1
A digest of the protocol: as §1

The next assay addresses T12, ZAK (Homo sapiens, UniProt Q9NYL2).
T12 construct: gene MAP3K20
In short, it runs like this:
as §1

The target of the next assay is T13, YSK1 (Homo sapiens, UniProt O00506).
T13 construct: gene STK25
T13 sequence (O00506 whole entry): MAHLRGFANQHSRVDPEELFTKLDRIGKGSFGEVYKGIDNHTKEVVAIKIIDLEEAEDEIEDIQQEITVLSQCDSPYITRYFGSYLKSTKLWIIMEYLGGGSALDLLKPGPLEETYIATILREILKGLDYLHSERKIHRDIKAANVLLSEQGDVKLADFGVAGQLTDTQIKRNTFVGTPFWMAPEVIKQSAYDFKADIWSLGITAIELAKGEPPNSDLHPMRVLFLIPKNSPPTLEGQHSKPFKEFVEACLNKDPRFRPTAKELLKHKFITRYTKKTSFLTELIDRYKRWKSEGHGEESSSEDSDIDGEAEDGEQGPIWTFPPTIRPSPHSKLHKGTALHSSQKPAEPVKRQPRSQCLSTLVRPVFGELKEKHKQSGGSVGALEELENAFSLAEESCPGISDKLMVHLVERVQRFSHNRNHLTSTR
A digest of the protocol: as §1

For the next assay, the target named is LYN (Homo sapiens, UniProt P07948). In short, it runs like this: as §1
For another assay, the target named is T14, IKK-epsilon (Homo sapiens, UniProt Q14164).
T14 construct: gene IKBKE
T14 sequence (Q14164 whole entry): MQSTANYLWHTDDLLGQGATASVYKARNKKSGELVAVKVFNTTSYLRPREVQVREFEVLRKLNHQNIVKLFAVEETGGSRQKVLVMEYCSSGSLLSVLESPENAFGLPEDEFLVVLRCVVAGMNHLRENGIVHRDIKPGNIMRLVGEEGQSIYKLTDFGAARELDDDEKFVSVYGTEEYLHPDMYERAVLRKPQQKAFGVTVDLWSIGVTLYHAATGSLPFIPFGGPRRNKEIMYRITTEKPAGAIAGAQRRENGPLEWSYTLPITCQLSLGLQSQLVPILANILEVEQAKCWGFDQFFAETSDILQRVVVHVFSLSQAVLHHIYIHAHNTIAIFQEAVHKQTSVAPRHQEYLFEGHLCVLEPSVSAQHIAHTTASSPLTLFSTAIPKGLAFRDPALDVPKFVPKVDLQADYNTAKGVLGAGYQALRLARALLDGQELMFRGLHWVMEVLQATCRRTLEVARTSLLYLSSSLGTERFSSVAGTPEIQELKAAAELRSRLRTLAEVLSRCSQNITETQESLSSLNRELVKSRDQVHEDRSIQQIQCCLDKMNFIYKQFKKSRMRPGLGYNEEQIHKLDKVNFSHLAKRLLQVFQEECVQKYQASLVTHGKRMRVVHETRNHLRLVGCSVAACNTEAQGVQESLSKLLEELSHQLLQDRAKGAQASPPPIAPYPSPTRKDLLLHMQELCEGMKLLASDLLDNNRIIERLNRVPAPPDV
A digest of the protocol:
as §1

A further assay has as its target BRAF (Homo sapiens, UniProt P15056). In short, it runs like this: as §1
For the next assay, the target named is T15, p38_alpha(direct) (Homo sapiens, UniProt Q16539).
T15 construct: gene MAPK14; direct
T15 sequence (Q16539 whole entry): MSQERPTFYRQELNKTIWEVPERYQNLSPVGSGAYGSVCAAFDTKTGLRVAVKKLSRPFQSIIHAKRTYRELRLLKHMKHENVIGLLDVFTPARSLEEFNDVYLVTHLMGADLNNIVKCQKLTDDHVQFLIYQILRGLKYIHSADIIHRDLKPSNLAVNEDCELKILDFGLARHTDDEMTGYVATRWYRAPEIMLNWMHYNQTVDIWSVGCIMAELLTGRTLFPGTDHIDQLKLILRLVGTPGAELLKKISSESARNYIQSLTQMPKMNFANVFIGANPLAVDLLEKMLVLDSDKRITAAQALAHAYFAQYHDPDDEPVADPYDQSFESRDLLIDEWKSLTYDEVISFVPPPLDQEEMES
A digest of the protocol: as §1

A further assay deals with T16, RSK3 (Homo sapiens, UniProt Q15349).
T16 construct: gene RPS6KA2
A digest of the protocol:
as §1

The target of the next assay is DYRK1A (Homo sapiens, UniProt Q13627). A digest of the protocol: as §1

T10 sequence (Q8IW41 whole entry): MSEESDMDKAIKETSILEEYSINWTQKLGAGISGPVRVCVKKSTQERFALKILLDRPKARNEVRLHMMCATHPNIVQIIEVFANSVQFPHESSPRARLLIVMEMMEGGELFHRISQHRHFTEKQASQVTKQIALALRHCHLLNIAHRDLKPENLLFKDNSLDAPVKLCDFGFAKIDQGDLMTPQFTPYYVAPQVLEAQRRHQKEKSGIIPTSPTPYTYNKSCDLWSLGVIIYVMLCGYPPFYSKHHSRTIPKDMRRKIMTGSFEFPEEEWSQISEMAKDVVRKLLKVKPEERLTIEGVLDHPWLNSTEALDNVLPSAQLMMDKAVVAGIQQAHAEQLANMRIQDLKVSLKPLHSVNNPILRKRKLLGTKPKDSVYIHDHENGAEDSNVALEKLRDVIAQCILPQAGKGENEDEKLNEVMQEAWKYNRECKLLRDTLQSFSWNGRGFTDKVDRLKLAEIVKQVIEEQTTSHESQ
T8 sequence (Q02750 whole entry): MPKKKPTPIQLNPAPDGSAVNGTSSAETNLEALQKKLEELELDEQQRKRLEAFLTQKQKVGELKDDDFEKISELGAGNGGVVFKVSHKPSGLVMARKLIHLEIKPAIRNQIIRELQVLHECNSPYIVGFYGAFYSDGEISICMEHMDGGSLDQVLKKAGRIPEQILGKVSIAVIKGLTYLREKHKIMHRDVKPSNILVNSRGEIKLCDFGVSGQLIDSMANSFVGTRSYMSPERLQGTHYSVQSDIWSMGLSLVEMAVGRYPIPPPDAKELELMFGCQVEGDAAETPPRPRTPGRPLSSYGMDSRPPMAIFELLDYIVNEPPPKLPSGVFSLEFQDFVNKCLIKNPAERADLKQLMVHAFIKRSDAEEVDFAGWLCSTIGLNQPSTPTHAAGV
T5 sequence (O60285 whole entry): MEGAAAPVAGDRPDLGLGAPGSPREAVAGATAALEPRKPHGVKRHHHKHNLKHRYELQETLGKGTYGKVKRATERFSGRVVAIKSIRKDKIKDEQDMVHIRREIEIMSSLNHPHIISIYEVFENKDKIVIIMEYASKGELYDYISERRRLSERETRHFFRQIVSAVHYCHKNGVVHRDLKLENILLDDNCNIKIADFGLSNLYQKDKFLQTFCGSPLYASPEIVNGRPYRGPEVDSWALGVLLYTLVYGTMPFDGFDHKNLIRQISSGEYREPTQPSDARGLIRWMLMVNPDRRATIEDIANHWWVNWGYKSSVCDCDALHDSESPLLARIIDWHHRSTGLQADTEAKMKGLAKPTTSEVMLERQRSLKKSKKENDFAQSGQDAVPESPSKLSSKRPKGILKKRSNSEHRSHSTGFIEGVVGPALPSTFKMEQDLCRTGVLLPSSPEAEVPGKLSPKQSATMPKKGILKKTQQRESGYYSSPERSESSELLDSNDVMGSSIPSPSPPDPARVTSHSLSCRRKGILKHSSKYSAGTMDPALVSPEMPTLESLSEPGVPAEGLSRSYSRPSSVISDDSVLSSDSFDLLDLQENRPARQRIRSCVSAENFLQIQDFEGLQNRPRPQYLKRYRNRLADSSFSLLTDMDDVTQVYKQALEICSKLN
T4 sequence (P28482 whole entry): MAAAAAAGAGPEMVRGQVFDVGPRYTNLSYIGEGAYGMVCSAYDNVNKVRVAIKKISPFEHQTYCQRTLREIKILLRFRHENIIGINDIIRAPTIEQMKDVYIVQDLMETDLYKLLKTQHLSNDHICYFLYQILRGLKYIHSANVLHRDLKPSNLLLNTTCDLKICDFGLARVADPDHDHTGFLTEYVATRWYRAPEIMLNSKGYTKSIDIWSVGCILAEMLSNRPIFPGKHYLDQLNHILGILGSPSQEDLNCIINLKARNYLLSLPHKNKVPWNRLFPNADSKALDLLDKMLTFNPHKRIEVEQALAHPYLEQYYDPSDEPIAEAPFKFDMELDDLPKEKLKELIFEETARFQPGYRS

Usually inhibition stands for the drop in the measured response relative to a control, in per cent. `COc1cc2c(cn1)N(C)C(=O)[C@@H](NC(=O)c1nc3n(n1)[C@H](c1ccccc1)CC3)CC2` [GNE684, (S)-N-((S)-7-methoxy-1-methyl-2-oxo-2,3,4,5-tetrahydro-1H-pyrido[3,4-b]azepin-3-yl)-5-phenyl-6,7-dihydro-5H-pyrrolo[1,2-b][1,2,4]triazole-2-carboxamide]: the inhibition at 10 µM on MYLK(smMLCK) was -5%; at p70S6K, 10%; on BMPR1A, -4.5%; at CK1_epsilon1, 5%; on ERK2, 1%; at ARK5 it was -6.5%. The inhibition at 10 µM on Ros is 3%; at JNK2, -4%; on MAPKAPK2 it was 4.5%; on EPHA1, 9.5%; on MEK1 it was -7.5%; on Srm it was 9%. In addition, the inhibition at 10 µM on PRAK is 2.5%; at HCK it was 5%; at JNK1_alpha1, -5.5%; at ZAK, -0.5%; at YSK1 it was 3.5%; at LYN, 7%. The inhibition at 10 µM on IKK-epsilon worked out at 3%; on BRAF it was 6.5%; at p38_alpha(direct) it was 3.5%; at RSK3, 6%; on DYRK1A, 2%.
